Results on 1 compound are retold here after PMC10033663, “Acute pharmacological profile of 2C-B-Fly-NBOMe in male Wistar rats—pharmacokinetics, effects on behaviour and thermoregulation” (Frontiers in Pharmacology, 2023).

Data set [1] concerns 5-HT2A receptor. Set-up: method as in Ettrup et al., 2011. The settings on record: among the examined NBOMes; ref Ettrup et al., 2011; cited from earlier work.
For data set [2] the following is noted: PET; ref Ettrup et al., 2011; cited from earlier work.
Data set [3] deals with male Wistar rats. Put plainly: Thermoregulation (rectal temperature). It is filed as in vivo. The following applies: 5 mg/kg s. c. How it is done: For the assessment of rectal temperature changes, rats were housed individually or in groups of five per cage. They were treated with 2C-B-Fly-NBOMe (5 mg/kg) or ctrl solution s. c. at 9:00 h. During the measurements, each rat was briefly immobilized in a plexiglass tube and then returned to its home cage. In total, 14 measurements were performed: […] for setting the baseline temperature, and then 4 subsequent 30 min measurements (09:30–11:00 h) and 6 hourly measurements (12:00–17:00 h).
Data from thermoregulatory experiments were analysed using 2 × 2 × 14 mixed factorial design with drug treatment (2C-B-Fly-NBOMe at 5 mg/kg or ctrl) and home cage conditions (individually and group-housed animals) as between-subjects factors and time (14 measurements) as a within-subjects factor. The baseline temperatures of animals were compared in the same manner.

In data set [4] the test system is 5-HT2A receptor. Set-up: method as in Ettrup et al., 2011. The settings on record: GF-62 cells; among the examined NBOMes; ref Ettrup et al., 2011; cited from earlier work.
For data set [5], the system named is male Wistar rats. Briefly: Prepulse inhibition (PPI) of acoustic startle response (ASR). The data set is classed as in vivo. How it is done:
The effect of 2C-B-Fly-NBOMe on sensorimotor gating was evaluated by a PPI of ASR test. Two identical startle chambers (SR-LAB, San Diego Instruments, California) were used, each containing a sound-proof, evenly lit and ventilated enclosure with a plexiglass stabilimeter (8.7 cm inner diameter), a piezoelectric accelerometer for detecting amplitudes of the ASR, and a high-frequency loudspeaker producing acoustic stimuli. Amplitudes of the ASR were digitized for subsequent analysis. The experimental design was based on our previous studies ([Štefková et al., 2017]; [Šíchová et al., 2018]). Two days before the experiment, the animals were habituated to the startle chambers with a background white noise (75 dB) for 5 min, followed by six presentations of pulse-alone stimuli (125 dB, 40 ms) with pseudorandomized inter-stimulus intervals. […]
Habituation was calculated by the percentage reduction in the ASR from the initial six baseline trials to the final six trials. PPI was calculated as [100 - (mean response for the prepulse - pulse trial/startle response for the single pulse trials) × 100]. […]
Locomotor activity in OFT (mean trajectory length across 5 min blocks) was evaluated using a 2 × 4 × 6 mixed factorial ANOVA with temporal testing onset (15 or 60 min) and drug treatment (2C-B-Fly-NBOMe 0.2, 1, or 5 mg/kg or ctrl) as between-subjects factors, and time blocks (6 × 5 min intervals) as a within-subjects factor. Spatial distribution of animal movement in OFT (thigmotaxis and T center) and PPI parameters (habituation, ASR and % of PPI) were each analysed using a 2 × 4 factorial ANOVA with temporal testing onset (15 or 60 min) and drug treatment (2C-B-Fly-NBOMe 0.2, 1, or 5 mg/kg or ctrl) as between-subjects factors.

For data set [6] the following is noted: three different systems; ref Nykodemová et al., 2021; cited from earlier work.

“Also recorded” adds a separate entry of the source.

As to `COc1ccccc1CNCCc1c2c(c(Br)c3c1OCC3)OCC2` [2C-B-Fly-NBOMe], the intrinsic activity entry in the data set on 5-HT2A receptor [1] is on record as “the lowest”. Besides, in data set [2], the cortical uptake result is reported as “highest cortical uptake among the examined NBOMes” and the “penetration of brain tissue” value is on record as “readily penetrated the brain tissue”. The “trend of hypothermic reaction in group-housed animals” value in the data set on male Wistar rats [3] (animals housed in groups) is “not in animals housed in groups”. For the same compound, the “hypothermic trend in individually housed animals” value with male Wistar rats [3] (individually housed, first 90 min after application) is “the statistical difference was not significant”. In addition, the “effect of the treatment on body temperature (ANOVA)” value in the data set on male Wistar rats [3] (p < 0.05) is reported as “significant effect of the treatment”. The “binding affinity to 5-HT2A receptor” value with 5-HT2A receptor [4] is on record as “highest binding affinity”. Moreover, the “percentage of PPI” value in the data set on male Wistar rats [5] (0.2, 1 and 5 mg/kg s. c., ANOVA treatment factor) is given as “not by treatment”. Further, the “Habituation of ASR” value in the data set on male Wistar rats [5] (0.2, 1 and 5 mg/kg s. c., p < 0.05) is given as “significantly affected by drug treatment”. The ASR versus ctrl result in the data set on male Wistar rats [5] (all doses (0.2, 1, 5 mg/kg s. c.), 15 and 60 min onset, p < 0.001) is recorded as “strongly disrupted; also recorded: significantly diminished ASR; also recorded: strongly attenuates ASR”. Moreover, in data set [6], the “number of phase I metabolites” value was “thirty-five” and the “number of phase II metabolites” value was “nine”.
